Test results taken from patent publication EP0418990A2, “13-Bromo and 13,14-dibromo ergoline, their preparation and their use” (SCHERING AKTIENGESELLSCHAFT, priority 1989, dated 1991).

System: Ratten
Assay: Automatic recording of stereotypies in rats (Horowski method), dopamine-agonist effect
Format: in vivo, männliche Wistar-Ratten
Conditions: 60 min after treatment
Text: Die dopaminagonistische Wirkung wurde mit Hilfe der von Horowski beschriebenen Methode der automatischen Registrierung von Stereotypien an Ratten bestimmt (Arzneim. Forsch. 12, 2281-2286, 1978): Unmittelbar nach intraperitonealer Prüfsubstanz- bzw. Vehikelverabreichung werden männliche Wistar-Ratten (90-120 g) einzeln in Zwangskäfige aus Acrylglas gesetzt. Über ein vor dem Kopf der Tiere angebrachtes elektrodynamisches Aufnahmesystem wird die Zahl der Kontakte an einem stählernen Becher mit einem zentralen Metallstab als Folge der stereotypen Kau-, Leck- und Nagebewegungen während 60 Minuten registriert. Die Mittelwerte ± S.E.M. der Anzahl der Kontakte während 60 Minuten für die verschiedenen Behandlungsgruppen, die mit jeweils 12 Tieren besetzt sind, werden berechnet und die Signifikanz der Unterschiede zwischen den Mittelwerten der verschiedenen Prüfsubstanzdosen im Vergleich zur Vehikel-behandelten Kontrollgruppe mit Hilfe der einfachen Varianzanalyse in Verbindung mit dem Dunnett-Test ermittelt.

CCN(CC)C(=O)N[C@H]1C[C@@H]2c3cc(Br)cc4[nH]c(C)c(c34)C[C@H]2N(CC)C1 [CH2CH3, 3-(13-Brom-6-ethyl-2-methyl-8α-ergolinyl)-1,1-diethyl-harnstoff]
Stereotypien(counts pro 60 Minuten) (Mittelwert ± S.E.M.) (dose 0.025 mg/kg intraperitoneal, n=12, vehicle control 2137 ± 849): 1943 ± 472 counts pro 60 Minuten
Stereotypien(counts pro 60 Minuten) (Mittelwert ± S.E.M.) (dose 0.1 mg/kg intraperitoneal, n=12, vehicle control 2137 ± 849): 2470 ± 548 counts pro 60 Minuten
Stereotypien(counts pro 60 Minuten) (Mittelwert ± S.E.M.) (dose 0.39 mg/kg intraperitoneal, n=12, xx: p<0.01 vs. control, vehicle control 2137 ± 849): 7499 ± 1342xx counts pro 60 Minuten
Stereotypien(counts pro 60 Minuten) (Mittelwert ± S.E.M.) (dose 1.56 mg/kg intraperitoneal, n=12, xx: p<0.01 vs. control, vehicle control 2137 ± 849): 8066 ± 1248xx counts pro 60 Minuten
Stereotypien(counts pro 60 Minuten) (Mittelwert ± S.E.M.) (dose 6.25 mg/kg intraperitoneal, n=12, xx: p<0.01 vs. control, vehicle control 2137 ± 849): 7381 ±1336xx counts pro 60 Minuten
